Tests used:
[1] = target: T1, glucocorticoid receptor (rbGR) (Oryctolagus cuniculus, UniProt P59667); assay: Glucocorticoid receptor binding / anti-glucocorticoid receptor activity; parameters: species or system rabbit
T1 construct: cytosol containing PR or GR were prepared in TEGMD buffer; from tissue; host or cells: thymus of estradiol-primed immature rabbits (cytosol)
T1 sequence (P59667 1-772): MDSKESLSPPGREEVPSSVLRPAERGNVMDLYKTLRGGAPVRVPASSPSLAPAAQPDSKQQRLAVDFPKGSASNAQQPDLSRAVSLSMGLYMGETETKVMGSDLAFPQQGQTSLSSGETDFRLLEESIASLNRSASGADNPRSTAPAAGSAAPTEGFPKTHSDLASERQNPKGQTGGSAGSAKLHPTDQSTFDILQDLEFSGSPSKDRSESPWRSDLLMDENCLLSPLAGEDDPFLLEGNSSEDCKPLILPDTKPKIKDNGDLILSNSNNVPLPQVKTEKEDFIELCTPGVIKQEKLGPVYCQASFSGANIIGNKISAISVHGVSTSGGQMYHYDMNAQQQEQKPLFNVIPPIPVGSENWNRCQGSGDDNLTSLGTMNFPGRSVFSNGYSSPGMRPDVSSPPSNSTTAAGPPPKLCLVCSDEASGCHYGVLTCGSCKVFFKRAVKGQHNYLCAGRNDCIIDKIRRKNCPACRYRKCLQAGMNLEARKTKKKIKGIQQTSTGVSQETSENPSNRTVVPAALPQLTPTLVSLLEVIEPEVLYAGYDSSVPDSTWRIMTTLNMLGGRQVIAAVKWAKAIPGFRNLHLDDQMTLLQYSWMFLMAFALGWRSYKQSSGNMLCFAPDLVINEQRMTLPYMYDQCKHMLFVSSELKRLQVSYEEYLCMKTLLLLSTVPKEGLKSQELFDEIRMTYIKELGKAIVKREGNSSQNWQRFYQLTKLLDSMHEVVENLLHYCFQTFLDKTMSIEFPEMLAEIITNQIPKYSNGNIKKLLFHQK
Description: Certain antiprogestins were tested in receptor-binding assays for their ability to bind rabbit progesterone receptor (rbPR) and glucocorticoid receptor (rbGR). […] For PR binding, the cytosol was incubated with 6 nM 1,2-[^3H]progesterone (50.0 Ci/mmole) and competitors were added at concentrations from 2 to 100 nM. For binding to GR, the cytosol was incubated with 6 nM 6,7-[^3H]-dexamethasone (40 Ci/mmol) and test compounds were added at concentrations from 20 to 100 nM. After overnight incubation at 4 C, bound and unbound [^3H] steroids were separated by addition of dextran-coated charcoal and centrifugation at 2100×g for 15 min at 4 C. Supernatants containing the [3H]-steroid receptor complexes were decanted into vials containing 4 ml Optifluor (Packard Instrument Co.), vortexed, equilibrated in a liquid scintillation counter for 30 minutes and then counted for 2 minutes. […] The standards for the PR and GR assays were unlabeled progesterone and dexamethasone, respectively.

opiate μ receptor (MOP) = opiate μ receptor (MOP) (Homo sapiens, UniProt P35372); assay: Affinity for and inhibition of opiate μ receptor; type: binding
Sequence of opiate μ receptor (MOP) (P35372 whole entry): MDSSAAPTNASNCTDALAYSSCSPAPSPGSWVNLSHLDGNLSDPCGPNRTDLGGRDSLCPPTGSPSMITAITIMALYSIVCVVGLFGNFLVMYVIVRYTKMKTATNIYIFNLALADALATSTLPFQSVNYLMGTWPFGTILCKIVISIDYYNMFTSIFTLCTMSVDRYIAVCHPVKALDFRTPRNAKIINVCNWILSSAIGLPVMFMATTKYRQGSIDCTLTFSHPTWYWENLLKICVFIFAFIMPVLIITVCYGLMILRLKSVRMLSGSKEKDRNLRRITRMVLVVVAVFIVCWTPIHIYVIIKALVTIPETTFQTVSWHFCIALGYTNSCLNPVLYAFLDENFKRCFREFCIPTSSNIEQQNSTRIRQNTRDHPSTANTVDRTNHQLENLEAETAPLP

[2] = test system: females suffering from endometriosis; assay: Example 12: 12.5 mg CDB-4124 beginning at day 5 versus day 15 of the menstrual cycle; type: in vivo, human; details: 12.5 mg for a six-month period
Description: Females suffering from endometriosis are divided into two groups: a first group receives 12.5 mg of CDB-4124 for a six-month period beginning at day 5 of each female's menstrual cycle; a second group receives 12.5 mg of CDB-4124 for a six-month period beginning at day 15 of each female's menstrual cycle. Endometrial thickness is monitored regularly throughout the six-month period.

endometrium = assay: Endometrial biopsies of women in the CDB-4124 treatment groups; type: in vivo, human
Description: Endometrial biopsies were taken from 27 women exposed to 12.5 mg, 25 mg or 50 mg CDB-4124 for six months and 31 women with uterine fibroids exposed to 12.5 or 25 mg CDB-4124 for three months. Specimens were evaluated in a treatment blinded fashion utilizing the WHO diagnostic schema (Silverberg et al., tumors of the uterine corpus: epithelial tumors and related lesions. Tavassoli F A, Stratton M R, reditors. WHO Classification of Tumors: Pathology and Genetics of Tumors of the Breast and Female Genital Organs. Lyon, France: IARC Press, 2003: 221-232). A consensus primary end point result was determined for each specimen by majority (two or more of three pathologists agree), or in the event of all pathologists disagreeing the “worst” diagnosis of the three was assigned. Additional findings were recorded using a structured data collection instrument. All raw data was provided to the reviewing pathologists, who undertook an independent analysis that was the basis for their conclusions.

[3] = test system: pre-menopausal adult women diagnosed with endometriosis; assay: Six month study of Proellex (CDB-4124) in the treatment of endometriosis; type: in vivo, human; details: for change in endometrial thickness from baseline (ultrasound): statistically insignificant

COCC(=O)[C@@]1(OC(C)=O)CC[C@H]2[C@@H]3CCC4=CC(=O)CCC4=C3[C@@H](c3ccc(N(C)C)cc3)C[C@@]21C [CDB-4124, 21-methoxy-17α-acetoxy-11β-(4 N,N-dimethylaminophenyl)-19-norpregna-4,9-diene-3,20-dione]
anti-glucocorticoid receptor activity / glucocorticoid receptor binding [1]: minimal
affinity for / inhibition of the opiate μ receptor (MOP) (opiate μ receptor (MOP)): has affinity for and can inhibit
endometrial thickening, group begun at day 15 versus group begun at day 5 [2]: lesser degree of endometrial thickening
consensus primary diagnosis of endometrial biopsy (WHO schema) (endometrium; 12.5, 25 or 50 mg for six months, 12.5 or 25 mg for three months): benign endometrium
blood vessel wall thickening and latticed capillary patterns (endometrium; endometrial biopsies): did not induce
most prominent secondary finding within the benign category (endometrium; endometrial biopsies, more prominent at lowest doses): cystic dilation of glands
endometrial proliferation (endometrium; every concentration tested (12.5, 25, 50 mg)): suppressed
increase in endometrial thickness from baseline (ultrasound) ([3]; 12.5 mg dose, after six months, begun at day 5 of cycle, statistically significant (p 0.016)): 10.9 mm
change in endometrial thickness from baseline (ultrasound) ([3]; 25 mg dose, after six months, begun at day 5 of cycle): 9.8 mm
change in endometrial thickness from baseline (ultrasound) ([3]; 50 mg dose, after six months, begun at day 5 of cycle): 3.9 mm
biomarkers of bone resorption ([3]; any of the dose arms of CDB-4124, three and six months of treatment): no significant changes

Reference: patent publication US8426394B2, “Progesterone antagonists such as CDB-4124 in the treatment of endometriosis, uterine fibroids, dysmenorrhea, breast cancer, etc” (Repros Therapeutics Inc., priority 2008, dated 2013)
